Laboratory results: PubChem BioAssay AID1918953 (Molecular Pharmacology Branch, DTP, NCI, 2023)
Several values for one entry are separate records, joined by “and”; a condition that tells them apart may be missing. Equal values may be shown once.

Tested on: MDA-MB-231 complex spheroid viability
Assay: Anticancer human tumor MDA-MB-231/ATCC cell line growth inhibition;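 also: drug exposure lasted 7 days starting on day 3 of spheroid growth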
Conditions: for IC50: curve of first compound; for viability, T/C: stronger effect = lower value; active = viability on the fitted dose curve at most 10% of control; inactive = the rest
Outline: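 Multicellular complex spheroids of tumor cells with human endothelial cells (HUVEC) and mesenchymal stem cells; the LSD1 inhibitor iadademstat was combined with standard-of-care or investigational agents. Top concentration at or near clinical Cmax, half-log dilutions; final DMSO ≤0.25%.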

[1] = second compound 0.1 µM, first compound 0.00949 µM
[2] = second compound 0.1 µM, first compound 0.03 µM
[3] = second compound 0.1 µM, first compound 0.0949 µM
[4] = second compound 0.1 µM, first compound 0.3 µM
[5] = second compound 0.1 µM, first compound 0.949 µM
[6] = second compound 0.1 µM, first compound 3 µM
[7] = second compound 0.316 µM, first compound 0.00949 µM
[8] = second compound 0.316 µM, first compound 0.03 µM
[9] = second compound 0.316 µM, first compound 0.0949 µM
[10] = second compound 0.316 µM, first compound 0.3 µM
[11] = second compound 0.316 µM, first compound 0.949 µM
[12] = second compound 0.316 µM, first compound 3 µM
[13] = second compound 1 µM, first compound 0.00949 µM
[14] = second compound 1 µM, first compound 0.03 µM
[15] = second compound 1 µM, first compound 0.0949 µM
[16] = second compound 1 µM, first compound 0.3 µM
[17] = second compound 1 µM, first compound 0.949 µM
[18] = second compound 1 µM, first compound 3 µM
[19] = second compound 3.16 µM, first compound 0.00949 µM
[20] = second compound 3.16 µM, first compound 0.03 µM
[21] = second compound 3.16 µM, first compound 0.0949 µM
[22] = second compound 3.16 µM, first compound 0.3 µM
[23] = second compound 3.16 µM, first compound 0.949 µM
[24] = second compound 3.16 µM, first compound 3 µM
[25] = second compound 10 µM, first compound 0.00949 µM
[26] = second compound 10 µM, first compound 0.03 µM
[27] = second compound 10 µM, first compound 0.0949 µM
[28] = second compound 10 µM, first compound 0.3 µM
[29] = second compound 10 µM, first compound 0.949 µM
[30] = second compound 10 µM, first compound 3 µM

COc1cc(C2c3cc4c(cc3C(OC3OC5COC(C)OC5C(O)C3O)C3COC(=O)C23)OCO4)cc(OC)c1O (stereo unspecified) + NC1CCC(NC2CC2c2ccccc2)CC1
130 nM: IC50 (second compound 1 µM)
146 nM: IC50 (second compound 0.316 µM)
active: viability, T/C [6] 8.25% | viability, T/C [12] 9.41% | viability, T/C [18] 10.5%
153 nM: IC50 (second compound 0.1 µM)
85.3 nM: IC50 (second compound 3.16 µM)
inactive: viability, T/C [1] 93.9% | viability, T/C [2] 79.8% | viability, T/C [3] 56.2% | viability, T/C [4] 41.6% | viability, T/C [5] 15.6% | viability, T/C [7] 98.8% | viability, T/C [8] 79.2% | viability, T/C [9] 56.1% | viability, T/C [10] 40.7% | viability, T/C [11] 16.8% | viability, T/C [13] 91.1% | viability, T/C [14] 73.1% | viability, T/C [15] 56% | viability, T/C [16] 37.6% | viability, T/C [17] 18.3% | viability, T/C [19] 79.6% | viability, T/C [20] 60.5% | viability, T/C [21] 50.1% | viability, T/C [22] 38.2% | viability, T/C [23] 17.8% | viability, T/C [24] 13.3% | viability, T/C [25] 59.5% | viability, T/C [26] 52.3% | viability, T/C [27] 44.4% | viability, T/C [28] 33% | viability, T/C [29] 17.7% | viability, T/C [30] 14.4%
47.5 nM: IC50 (second compound 10 µM)

CC1COCCN1c1cc(-c2ccnn2C)c2ccnc(-c3ccn[nH]3)c2n1 (stereo unspecified)
inactive: viability, T/C (compound 0.00316 µM) 92.8% and 41% | viability, T/C (compound 0.01 µM) 80.5% and 30.1% | viability, T/C (compound 0.0316 µM) 51.5% and 19.3% | viability, T/C (compound 0.1 µM) 35.9% and 18.3% | viability, T/C (compound 0.316 µM) 31.8% and 18.9% | viability, T/C (compound 1 µM) 28.6% and 22.4%

Nc1ccn(C2OC(CO)C(O)C2(F)F)c(=O)n1 (stereo unspecified) + NC1CC1c1ccc(-c2cccc(O)c2)cc1
< 0.949 nM: IC50 (second compound 0.1 µM) | IC50 (second compound 0.316 µM) | IC50 (second compound 1 µM) | IC50 (second compound 3.16 µM) | IC50 (second compound 10 µM)
inactive: viability, T/C (second compound 0.1 µM, first compound 0.000949 µM) 30.5% | viability, T/C (second compound 0.1 µM, first compound 0.003 µM) 24.4% | viability, T/C [1] 22.2% | viability, T/C [2] 19.4% | viability, T/C [3] 17.4% | viability, T/C [4] 12% | viability, T/C (second compound 0.316 µM, first compound 0.000949 µM) 28% | viability, T/C (second compound 0.316 µM, first compound 0.003 µM) 23.6% | viability, T/C [7] 21.3% | viability, T/C [8] 14.5% | viability, T/C [9] 14.1% | viability, T/C [10] 12.9% | viability, T/C (second compound 1 µM, first compound 0.000949 µM) 30.8% | viability, T/C (second compound 1 µM, first compound 0.003 µM) 21.8% | viability, T/C [13] 22.4% | viability, T/C [14] 15.6% | viability, T/C [15] 15.3% | viability, T/C [16] 12.3% | viability, T/C (second compound 3.16 µM, first compound 0.000949 µM) 33.8% | viability, T/C (second compound 3.16 µM, first compound 0.003 µM) 23.9% | viability, T/C [19] 19.9% | viability, T/C [20] 17.5% | viability, T/C [21] 15.8% | viability, T/C [22] 11.3% | viability, T/C (second compound 10 µM, first compound 0.000949 µM) 22.9% | viability, T/C (second compound 10 µM, first compound 0.003 µM) 18.1% | viability, T/C [25] 16% | viability, T/C [26] 13.6% | viability, T/C [27] 10.9%
active: viability, T/C [28] 9.95%

CCN(c1cc(-c2ccc(CN3CCOCC3)cc2)cc(C(=O)NCc2c(C)cc(C)[nH]c2=O)c1C)C1CCOCC1 + NC1CC1c1ccc(-c2cccc(O)c2)cc1
143 nM: IC50 (second compound 0.1 µM)
13.1 nM: IC50 (second compound 10 µM)
92 nM: IC50 (second compound 3.16 µM)
inactive: viability, T/C [1] 89.6% | viability, T/C [2] 82% | viability, T/C [3] 51.3% | viability, T/C [4] 40% | viability, T/C [5] 27.8% | viability, T/C [6] 17.8% | viability, T/C [7] 73.1% | viability, T/C [8] 70.2% | viability, T/C [9] 46.2% | viability, T/C [10] 36.4% | viability, T/C [11] 25.2% | viability, T/C [12] 16.6% | viability, T/C [13] 68.2% | viability, T/C [14] 69.7% | viability, T/C [15] 46.7% | viability, T/C [16] 35.1% | viability, T/C [17] 23.9% | viability, T/C [18] 17.1% | viability, T/C [19] 72.5% | viability, T/C [20] 71.6% | viability, T/C [21] 44.7% | viability, T/C [22] 34.3% | viability, T/C [23] 21.8% | viability, T/C [24] 16.6% | viability, T/C [25] 52.6% | viability, T/C [26] 43.1% | viability, T/C [27] 34.3% | viability, T/C [28] 24.6% | viability, T/C [29] 16.8% | viability, T/C [30] 12.2%
99.7 nM: IC50 (second compound 0.316 µM) | IC50 (second compound 1 µM)

O=C(C=Cc1cccc(S(=O)(=O)Nc2ccccc2)c1)NO + NC1CCC(NC2CC2c2ccccc2)CC1
< 9.49 nM: IC50 (second compound 10 µM)
21.9 nM: IC50 (second compound 3.16 µM)
inactive: viability, T/C [1] 90.7% | viability, T/C [2] 75.7% | viability, T/C [3] 53% | viability, T/C [4] 30.5% | viability, T/C [5] 13.7% | viability, T/C [7] 86.3% | viability, T/C [8] 69.6% | viability, T/C [9] 53.5% | viability, T/C [10] 30.8% | viability, T/C [11] 14.1% | viability, T/C [13] 79.1% | viability, T/C [14] 61.8% | viability, T/C [15] 43.6% | viability, T/C [16] 30.3% | viability, T/C [17] 11.3% | viability, T/C [19] 61.4% | viability, T/C [20] 45.3% | viability, T/C [21] 31% | viability, T/C [22] 20.8% | viability, T/C [25] 39.8% | viability, T/C [26] 29.8% | viability, T/C [27] 17.9% | viability, T/C [28] 13.9%
active: viability, T/C [6] 0.59% | viability, T/C [12] 1.38% | viability, T/C [18] 0.68% | viability, T/C [23] 6.19% | viability, T/C [24] 0.34% | viability, T/C [29] 3.39% | viability, T/C [30] 0.33%
113 nM: IC50 (second compound 0.1 µM)
66.2 nM: IC50 (second compound 1 µM)
106 nM: IC50 (second compound 0.316 µM)
